According to patent US5665386A, “Use of essential oils to increase bioavailability of oral pharmaceutical compounds” (priority 1995, dated 1997):
Where “and” joins values, the source holds several entries; their conditions need not be identical. Equal entries are not always repeated. Where two headings read alike, the source gives them in different places.

Tested on: rat cytochrome P450 3A
[1] = Table 2, 0.0001 wt. % component
[2] = Table 2, repeat 0.0001 wt. % (SD in parentheses)

Row | SMILES | % inhibition of cyclosporine metabolism [1] [%] | % inhibition of cyclosporine metabolism (Table 2, 0.001 wt. % component) [%] | % inhibition of cyclosporine metabolism (Table 2, 0.01 wt. % component) [%] | also measured
1 | C=C(C)[C@H]1CC=C(C)C(=O)C1 [Carvone-(S)-(+), p-Mentha-6,8-dien-2-one] | 30 | 70.5 |  | 
2 | CC1(C)C(=O)[C@]2(C)CC[C@H]1C2 [Fenchone-(1R)-(-), 1,3,3-Trimethylbicyclo [2.2.1] heptan-2-one] | 14 | 38 |  | 
3 | C=C(C)[C@@H]1CC=C(C)CC1 [Limonene-(S)-(-), p-Mentha-1,8-diene] |  | 30 | 82.3 | 
4 | CC(=O)OC/C=C(\C)CCC=C(C)C [Geranyl Acetate, trans-3,7-Dimethyl-2,6-octadien-1-yl acetate] |  | 51.5 | 73 | 
5 | C=CC(C)(O)CCC=C(C)C (racemic) [Linalool-(±), 3,7-Dimethyl-1,6-octadien-3-ol] | 41 | 72.0 | 85 | % inhibition of cyclosporine metabolism, repeat [2]: -7 (9) % and -5 (2) %
6 | COC(=O)c1ccccc1N [Methyl Anthranilate, Methyl 2-aminobenzoate] | -7 | 23 |  | 
7 | C=CCc1ccc(O)c(OC)c1 [Eugenol, 4-Allyl-2-methoxyphenol] | 9.8 | 66 | 100 | 
8 | CC=C(C)C=CC=C(C)C [Allo Ocimene, 2,6-Dimethyl-2,4,6-octatriene] | 6 | 22 |  | 
9 | CC(C)[C@@H]1CC[C@@H](C)CC1=O [Menthone-(-), p-Menthan-3-one] | 14 | 52 |  | 
10 | CC1=CC=C(C(C)C)CC1 [Terpinene-α, p-Mentha-1,3-diene] | -6 | 28 |  | 
11 | C=C(C)C1CC=C(C)C(O)C1 (single isomer, unassigned) [Carveol-(-), p-Mentha-6,8-dien-2-ol] | 2 | 60 |  | 
12 | CC12CCC(CC1=O)C2(C)C (racemic) [Camphor-(±), 1,7,7-Trimethylbicyclo [2.2.1] heptan-2-one] |  |  |  | % inhibition of cyclosporine metabolism, repeat (microsomes, pH 7.4): 53 (3) %
13 | C=CC(=C)CCC=C(C)C [Myrcene-β, 7-Methyl-3-methylene-1,6-octadiene] | 0 | 13 |  | 
14 | CC1=CCC(C(C)(C)O)CC1 (stereo not drawn) [Terpineol-α, p-Menth-1-en-8-ol] | 13.4 | 86 | 100 | 
15 | C=C1CC[C@H]2C[C@@H]1C2(C)C [Pinene-(1S)-(-)-β, 6,6-Dimethyl-2-methylenebicyclo[3.1.1]heptane] | -10 | 60 | 88 | 
16 | C=C1C2CCC(C2)C1(C)C (single isomer, unassigned) [Camphene-(+), 2,2-Dimethyl-3-methylenebicyclo[2.2.1]heptane] | -49 | 12.4 |  | 
17 | C=CC(C)(CCC=C(C)C)OC(C)=O (centres unmarked) [Linalyl Acetate, 3,7-Dimethyl-1,6-octadien-3-yl acetate] |  | 55.8 | 100 | 
18 | CCOC(=O)/C=C/c1ccccc1 [Ethyl Cinnamate, trans-, Ethyl 3-phenylpropenoic acid] | -13 | -16 |  | 
19 | CC(C)=CCC/C(C)=C/C=O [Citral] | 44 | 54 | 99 | 

Row | SMILES | % inhibition of cyclosporine metabolism [1] [%] | % inhibition of cyclosporine metabolism (Table 2, 0.001 wt. % component) [%] | % inhibition of cyclosporine metabolism (Table 2, 0.01 wt. % component) [%] | also measured
20 | CC(C)=CCCC(C)CCO (stereo not drawn) [Citronellol-(DL)-(β), 3,7-Dimethyl-6-octen-1-ol] | 41 | 86 | 95 | % inhibition of cyclosporine metabolism, repeat [2]: 35 (4) %
21 | CC1(C)[C@H]2CC[C@](C)(C2)[C@H]1O [Fenchol-(1R)-endo-(+), 1,3,3-Trimethylbicyclo [2.2.1] heptan-2-ol] | 18 | 74 | 100 | 
22 | C=C(C)[C@@H]1CC=C(C)C(=O)C1 [Carvone-(R)-(-), p-Mentha-6,8-dien-2-one] | 27 | 69 | 100 | 
23 | C=CCc1ccc(OC)cc1 [Estragole, 4-Allylanisole] | 7 | 69.2 | 100 | 
24 | CCOc1cc(C=O)ccc1O [Ethyl Vanillin, 3-Ethoxy-4-hydroxybenzalehyde] |  |  | 58 | 
25 | CC(C)=CCC/C(C)=C/CC/C(C)=C/CO [Farnesol, trans-, trans-, 3,7,11-Trimethyl-2,6,10-dodecatrien-1-ol] | 49 | 82 |  | 
26 | COc1cc(CNC(=O)CCCC/C=C/C(C)C)ccc1O [Capsaicin, trans-8-Methyl-N-vanillyl-6 nonenamide] | 27 | 68 |  | 
27 | C=C1CC/C=C(\C)CC[C@@H]2[C@@H]1CC2(C)C [Caryophyllene, trans-(-), β Caryophyllene] | 26 | 85 |  | 
28 | Cc1ccc(C(C)C)cc1O [Carvacrol, 5-isoProply-2-methylphenol] | 11 | 93 | 97 | 
29 | CC/C=C\CC1=C(C)CCC1=O [Jasmone, cis-, 3-Methyl-2-(2-pentenyl)-2-cyclopenten-1-one] | 16.0 | 68 |  | 
30 | CC1=CCC(O)(C(C)C)CC1 (centres unmarked) [Terpinen-4-ol, p-Menth-1-en-4-ol] | 3.81 | 80 | 100 | 
31 | CC(=O)N1CCN(c2ccc(OCC3COC(Cn4ccnc4)(c4ccc(Cl)cc4Cl)O3)cc2)CC1 (centres unmarked) [Ketoconazole, reference compound] |  |  |  | % inhibition of cyclosporine metabolism (Table 3, 0.000001%): 8%; % inhibition of cyclosporine metabolism (Table 3, 0.000005%): 20%; % inhibition of cyclosporine metabolism (Table 3, 0.00001%): 42%; % inhibition of cyclosporine metabolism (Table 3, 0.00005%): 100%
32 | CC(C)=C1CC[C@@H](C)CC1=O [Pulegone-(R)-(+), p-Menth-4(8)-en-3-one] | -17 | 31 |  | 
33 | O=C/C=C/c1ccccc1 [Cinnamic Aldehyde, trans-, 3-Phenylpropenaldehyde] |  | 29.0 | 78 | 
34 | CCC=CCC1C(=O)CCC1CC(=O)OC (racemic) [Methyl Jasmonate-(±), Methyl-3-oxo-2-(2-pentenyl)-cyclopentane acetate] | -27 | 65 |  | 
35 | O=C(/C=C/c1ccccc1)OCc1ccccc1 [Benzyl Cinnamate, Benzyl 3-phenylpropenoic acid] | 7 | -45 |  | 
36 | C/C=C/c1ccc(OC)cc1 [Anethole, trans-, 4-Propenylanisole] |  | 53 | 100 | 
37 | CC1=CCC2C(C1)C2(C)C (centres unmarked) [Carene-3-(Δ)] | -26 | 34 |  | 
38 | C=C(C)[C@H]1CC=C(C)CC1 [Limonene-(R)-(+), p-Mentha-1,8-diene] |  | 20 | 84 | 
